# From patent publication US20250171420A1 (Monte Rosa Therapeutics, Inc., priority 2022, published 2025)
# Target: T1, CK1α (Homo sapiens, UniProt P48729)
# T1 construct: HEK293 clonal lines with CRISPR KI HiBiT tag on CSNK1A1
# Assay: CK1α NanoBit Assay (HiBiT-tagged CSNK1A1, HEK293 clonal lines)
# Type: cell-based
# Conditions: HEK293 HiBiT-CSNK1A1/LgBiT cells, 24 h incubation
# Method: HEK293 clonal lines with CRISPR KI HiBiT tag on CSNK1A1 and stably expressing LgBiT protein were obtained from Promega (Madison, WI). […] Cells were incubated at 37° C., 5% CO2 for 24 hours and then signal was read on a Pherastar FSX using “LUM plus” optic module.
# Data analysis was performed in Scinamic (Scinamic, Cambridge, MA). Luminescence response (R) was calculated by the formula: response=100*(S−N)/(P−N) where S is the signal of the well, N and P the mean negative and positive control values respectively of the same plate.
# DC50 data are reported in Table 2 for compounds in Table 1. In Table 2 below, According to the code, A represents a DC50 value of ≤0.1 μM, B represents a DC50 value>0.1 μM and ≤1 μM, C represents an DC50 value>1 μM.
# T1 sequence (P48729 whole entry): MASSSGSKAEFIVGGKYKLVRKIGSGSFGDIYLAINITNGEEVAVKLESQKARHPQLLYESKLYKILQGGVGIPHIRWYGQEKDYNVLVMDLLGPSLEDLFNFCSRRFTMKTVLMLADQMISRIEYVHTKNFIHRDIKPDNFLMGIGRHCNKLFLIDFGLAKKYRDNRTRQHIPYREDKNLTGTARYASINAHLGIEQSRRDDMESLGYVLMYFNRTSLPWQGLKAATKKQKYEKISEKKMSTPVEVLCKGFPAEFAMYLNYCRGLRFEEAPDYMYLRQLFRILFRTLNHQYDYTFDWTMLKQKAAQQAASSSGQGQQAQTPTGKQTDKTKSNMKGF
# T1 sequence (Q96SW2 whole entry, further chain): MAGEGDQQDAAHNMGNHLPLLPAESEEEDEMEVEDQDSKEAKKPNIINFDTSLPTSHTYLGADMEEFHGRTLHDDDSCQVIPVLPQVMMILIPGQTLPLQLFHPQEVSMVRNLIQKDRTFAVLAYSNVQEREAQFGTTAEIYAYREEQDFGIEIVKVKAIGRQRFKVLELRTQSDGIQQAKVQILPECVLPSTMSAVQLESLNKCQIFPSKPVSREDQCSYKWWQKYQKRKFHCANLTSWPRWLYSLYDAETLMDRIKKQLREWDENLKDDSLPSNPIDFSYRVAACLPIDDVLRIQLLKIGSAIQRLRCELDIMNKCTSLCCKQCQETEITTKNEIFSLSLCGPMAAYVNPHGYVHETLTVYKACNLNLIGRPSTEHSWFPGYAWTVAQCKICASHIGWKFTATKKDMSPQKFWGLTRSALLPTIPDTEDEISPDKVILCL
# T1 sequence (Q16531 2-1140 partner limits assumed): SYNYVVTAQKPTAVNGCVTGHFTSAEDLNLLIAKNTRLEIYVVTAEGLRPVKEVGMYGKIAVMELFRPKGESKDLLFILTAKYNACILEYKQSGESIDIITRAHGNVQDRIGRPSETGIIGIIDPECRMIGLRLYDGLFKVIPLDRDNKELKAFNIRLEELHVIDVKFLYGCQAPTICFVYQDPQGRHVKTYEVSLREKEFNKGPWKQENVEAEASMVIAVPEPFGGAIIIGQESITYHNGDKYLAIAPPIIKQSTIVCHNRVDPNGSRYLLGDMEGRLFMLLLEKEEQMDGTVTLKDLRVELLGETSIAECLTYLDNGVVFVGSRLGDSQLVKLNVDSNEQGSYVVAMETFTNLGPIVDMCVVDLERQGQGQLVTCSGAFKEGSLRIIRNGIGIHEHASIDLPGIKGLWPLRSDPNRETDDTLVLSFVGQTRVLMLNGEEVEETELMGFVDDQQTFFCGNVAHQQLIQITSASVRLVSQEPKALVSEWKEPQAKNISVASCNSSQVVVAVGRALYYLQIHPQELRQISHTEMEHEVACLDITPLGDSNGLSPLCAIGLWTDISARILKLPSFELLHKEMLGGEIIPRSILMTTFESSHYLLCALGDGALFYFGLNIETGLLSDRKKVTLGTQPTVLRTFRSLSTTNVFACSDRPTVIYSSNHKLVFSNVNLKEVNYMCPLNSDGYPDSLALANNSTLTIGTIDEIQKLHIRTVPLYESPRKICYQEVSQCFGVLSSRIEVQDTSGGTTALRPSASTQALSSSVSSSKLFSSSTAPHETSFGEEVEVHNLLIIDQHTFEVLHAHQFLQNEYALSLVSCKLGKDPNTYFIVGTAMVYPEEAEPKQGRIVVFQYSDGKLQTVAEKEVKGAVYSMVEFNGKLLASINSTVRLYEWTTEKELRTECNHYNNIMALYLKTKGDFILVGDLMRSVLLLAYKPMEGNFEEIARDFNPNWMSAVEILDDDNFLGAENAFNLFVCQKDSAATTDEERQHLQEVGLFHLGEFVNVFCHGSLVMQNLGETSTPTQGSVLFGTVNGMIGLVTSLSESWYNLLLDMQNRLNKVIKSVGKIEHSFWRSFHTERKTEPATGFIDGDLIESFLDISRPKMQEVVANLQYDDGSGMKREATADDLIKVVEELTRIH
row,DC50,SMILES
1,0.1 to 1 µM,"O=C1CCC(N2Cc3cc(NC(=O)N4CCCc5ccccc54)ccc3C2=O)C(=O)N1 (stereo not drawn) [Compound 107, N-(2-(2,6-dioxopiperidin-3-yl)-1-oxoisoindolin-5-yl)-3,4-dihydroquinoline-1(2H)-carboxamide]"
2,< 0.1 µM,Cc1ccccc1C1CN(C(=O)Nc2ccc3c(c2)CN(C2CCC(=O)NC2=O)C3=O)C1 (stereo not drawn) [Compound 227]
3,0.1 to 1 µM,C[C@@H]1C[C@H](C)c2ccccc2N1C(=O)Nc1ccc2c(c1)CN(C1CCC(=O)NC1=O)C2=O (stereo partly drawn) [Compound 128]
4,< 0.1 µM,O=C1CCC(N2Cc3cc(NC(=O)N4CCC(C(F)(F)F)c5ccccc54)ccc3C2=O)C(=O)N1 (stereo not drawn) [Compound 127]
5,< 0.1 µM,O=C1CCC(N2Cc3cc(NC(=O)N4CC(c5ccccc5F)C4)ccc3C2=O)C(=O)N1 (stereo not drawn) [Compound 217]
6,0.1 to 1 µM,O=C1CCC(N2Cc3cc(NC(=O)N4C[C@@H]5C[C@]5(C(F)F)C4)ccc3C2=O)C(=O)N1 (stereo partly drawn) [Compound 240]
7,0.1 to 1 µM,O=C1CCC(N2Cc3cc(NC(=O)N4CCC(c5nccs5)C4)ccc3C2=O)C(=O)N1 (stereo not drawn) [Compound 247]
8,< 0.1 µM,O=C1CCC(N2Cc3cc(NC(=O)N4CCC(c5ccccc5)C4)ccc3C2=O)C(=O)N1 (stereo not drawn) [Compound 260]
9,< 0.1 µM,O=C1CCC(N2Cc3cc(NC(=O)N4CCCCC4c4ccccc4)ccc3C2=O)C(=O)N1 (stereo not drawn) [Compound 253]
10,> 1 µM,N#Cc1cccc2c1CCCN2C(=O)Nc1ccc2c(c1)CN(C1CCC(=O)NC1=O)C2=O (stereo not drawn) [Compound 126]
11,0.1 to 1 µM,N#Cc1ccc2c(c1)CCCN2C(=O)Nc1ccc2c(c1)CN(C1CCC(=O)NC1=O)C2=O (stereo not drawn) [Compound 150]
12,> 1 µM,O=C1CCC(N2Cc3cc(NC(=O)N4CCN(c5nccs5)CC4)ccc3C2=O)C(=O)N1 (stereo not drawn) [Compound 242]
13,< 0.1 µM,O=C1CCC(N2Cc3cc(NC(=O)N4CCCc5ccc(F)cc54)ccc3C2=O)C(=O)N1 (stereo not drawn) [Compound 116]
14,0.1 to 1 µM,CC1CN(c2ccccc2)CCN1C(=O)Nc1ccc2c(c1)CN(C1CCC(=O)NC1=O)C2=O (stereo not drawn) [Compound 257]
15,0.1 to 1 µM,Cc1cccc2c1CCCN2C(=O)Nc1ccc2c(c1)CN(C1CCC(=O)NC1=O)C2=O (stereo not drawn) [Compound 122]
16,< 0.1 µM,C[C@H]1c2ccccc2[C@H](C)N1C(=O)Nc1ccc2c(c1)CN(C1CCC(=O)NC1=O)C2=O (stereo partly drawn) [Compound 172]
17,0.1 to 1 µM,Cc1cccc(N2CCN(C(=O)Nc3ccc4c(c3)CN(C3CCC(=O)NC3=O)C4=O)CC2)c1 (stereo not drawn) [Compound 265]
18,> 1 µM,O=C1CCC(N2Cc3cc(NC(=O)N4CCCC(O)C4)ccc3C2=O)C(=O)N1 (stereo not drawn) [Compound 262]
19,0.1 to 1 µM,C[C@H]1CCCN(C(=O)Nc2ccc3c(c2)CN(C2CCC(=O)NC2=O)C3=O)C1 (stereo partly drawn) [Compound 279]
20,< 0.1 µM,O=C1CCC(N2Cc3cc(NC(=O)N4CC(c5ccc(Cl)cc5)C4)ccc3C2=O)C(=O)N1 (stereo not drawn) [Compound 231]
21,> 1 µM,Cn1cc(C2CCN(C(=O)Nc3ccc4c(c3)CN(C3CCC(=O)NC3=O)C4=O)C2)cn1 (stereo not drawn) [Compound 222]
22,0.1 to 1 µM,CCC1(c2ccccc2)CN(C(=O)Nc2ccc3c(c2)CN(C2CCC(=O)NC2=O)C3=O)C1 (stereo not drawn) [Compound 252]
23,< 0.1 µM,Cc1cc(C)c2c(n1)CN(C(=O)Nc1ccc3c(c1)CN(C1CCC(=O)NC1=O)C3=O)C2 (stereo not drawn) [Compound 118]
24,0.1 to 1 µM,O=C1CCC(N2Cc3cc(NC(=O)N4CCCc5c(F)cccc54)ccc3C2=O)C(=O)N1 (stereo not drawn) [Compound 131]
25,0.1 to 1 µM,CC(C)c1cccc2c1N(C(=O)Nc1ccc3c(c1)CN(C1CCC(=O)NC1=O)C3=O)CCC2 (stereo not drawn) [Compound 155]
26,> 1 µM,Cn1cc(N2CCN(C(=O)Nc3ccc4c(c3)CN(C3CCC(=O)NC3=O)C4=O)CC2)cn1 (stereo not drawn) [Compound 243]
27,0.1 to 1 µM,O=C1CCC(N2Cc3cc(NC(=O)N4CCCC5CC54)ccc3C2=O)C(=O)N1 (stereo not drawn) [Compound 276]

row,DC50,SMILES
1,0.1 to 1 µM,CC1(c2ccccc2)CCCN(C(=O)Nc2ccc3c(c2)CN(C2CCC(=O)NC2=O)C3=O)C1 (stereo not drawn) [Compound 259]
2,< 0.1 µM,O=C1CCC(N2Cc3cc(NC(=O)N4CCc5ccc(-c6ccccc6)cc5C4)ccc3C2=O)C(=O)N1 (stereo not drawn) [Compound 183]
3,0.1 to 1 µM,N#Cc1ccc(C2CN(C(=O)Nc3ccc4c(c3)CN(C3CCC(=O)NC3=O)C4=O)C2)cc1 (stereo not drawn) [Compound 244]
4,0.1 to 1 µM,CC1CCc2ccccc2N1C(=O)Nc1ccc2c(c1)CN(C1CCC(=O)NC1=O)C2=O (stereo not drawn) [Compound 120]
5,< 0.1 µM,CC(C)[C@]12C[C@H]1CN(C(=O)Nc1ccc3c(c1)CN(C1CCC(=O)NC1=O)C3=O)C2 (stereo partly drawn) [Compound 235]
6,< 0.1 µM,O=C1CCC(N2Cc3cc(NC(=O)N4CCc5cc(F)ccc5C4)ccc3C2=O)C(=O)N1 (stereo not drawn) [Compound 193]
7,0.1 to 1 µM,O=C1CCC(N2Cc3cc(NC(=O)N4CCC(c5ccccn5)C4)ccc3C2=O)C(=O)N1 (stereo not drawn) [Compound 263]
8,< 0.1 µM,CC1(C)Cc2ccccc2N(C(=O)Nc2ccc3c(c2)CN(C2CCC(=O)NC2=O)C3=O)C1 (stereo not drawn) [Compound 165]
9,0.1 to 1 µM,Cc1ccc(C2CCCN2C(=O)Nc2ccc3c(c2)CN(C2CCC(=O)NC2=O)C3=O)cn1 (stereo not drawn) [Compound 224]
10,0.1 to 1 µM,O=C1CCC(N2Cc3cc(NC(=O)N4CCCc5cccc(F)c54)ccc3C2=O)C(=O)N1 (stereo not drawn) [Compound 157]
11,< 0.1 µM,O=C1CCC(N2Cc3cc(NC(=O)N4Cc5ccccc5C(C(F)(F)F)C4)ccc3C2=O)C(=O)N1 (stereo not drawn) [Compound 196]
12,< 0.1 µM,O=C1CCC(N2Cc3cc(NC(=O)N4CCCC4c4ccccc4)ccc3C2=O)C(=O)N1 (stereo not drawn) [Compound 264]
13,< 0.1 µM,O=C1CCC(N2Cc3cc(NC(=O)N4Cc5cccc(F)c5C4)ccc3C2=O)C(=O)N1 (stereo not drawn) [Compound 202]
14,< 0.1 µM,C[C@@H]1c2ccccc2CN1C(=O)Nc1ccc2c(c1)CN(C1CCC(=O)NC1=O)C2=O (stereo partly drawn) [Compound 170]
15,< 0.1 µM,O=C1CCC(N2Cc3cc(NC(=O)N4Cc5ccc(C(F)F)cc5C4)ccc3C2=O)C(=O)N1 (stereo not drawn) [Compound 168]
16,< 0.1 µM,O=C1CCC(N2Cc3cc(NC(=O)N4CC5CC5c5cc(Br)ccc54)ccc3C2=O)C(=O)N1 (stereo not drawn) [Compound 173]
17,> 1 µM,O=C1CCC(N2Cc3cc(NC(=O)N4CCN(c5cnccn5)CC4)ccc3C2=O)C(=O)N1 (stereo not drawn) [Compound 254]
18,> 1 µM,O=C1CCC(N2Cc3cc(NC(=O)N4CCC(c5cnccn5)C4)ccc3C2=O)C(=O)N1 (stereo not drawn) [Compound 223]
19,> 1 µM,O=C1CCC(N2Cc3cc(NC(=O)N4CCC(O)CC4)ccc3C2=O)C(=O)N1 (stereo not drawn) [Compound 251]
20,0.1 to 1 µM,O=C1CCC(N2Cc3cc(NC(=O)N4CCC(c5ccc(F)cn5)C4)ccc3C2=O)C(=O)N1 (stereo not drawn) [Compound 239]
21,< 0.1 µM,O=C1CCC(N2Cc3cc(NC(=O)N4Cc5cccc(Cl)c5C4)ccc3C2=O)C(=O)N1 (stereo not drawn) [Compound 182]
22,0.1 to 1 µM,Cn1ccc(C2CCCN(C(=O)Nc3ccc4c(c3)CN(C3CCC(=O)NC3=O)C4=O)C2)n1 (stereo not drawn) [Compound 267]
23,0.1 to 1 µM,N#Cc1cccc2c1CCN(C(=O)Nc1ccc3c(c1)CN(C1CCC(=O)NC1=O)C3=O)C2 (stereo not drawn) [Compound 176]
24,< 0.1 µM,O=C1CCC(N2Cc3cc(NC(=O)N4CCCCC4C(F)(F)F)ccc3C2=O)C(=O)N1 (stereo not drawn) [Compound 219]
25,0.1 to 1 µM,O=C1CCC(N2Cc3cc(NC(=O)N4CCN(c5ncccn5)CC4)ccc3C2=O)C(=O)N1 (stereo not drawn) [Compound 272]
26,< 0.1 µM,O=C1CCC(N2Cc3cc(NC(=O)N4CCc5ccccc5C4c4ccccc4)ccc3C2=O)C(=O)N1 (stereo not drawn) [Compound 211]
27,< 0.1 µM,CC1(C)CCN(C(=O)Nc2ccc3c(c2)CN(C2CCC(=O)NC2=O)C3=O)c2ccccc21 (stereo not drawn) [Compound 143]
